Measured values taken from patent US8076487B2, “Pyridone derivative and herbicide” (Kumiai Chemical Industry Co., Ltd., priority 2006, dated 2011).

Key:
Format in all cases: in vivo
[1] = tested on: early watergrass (Echinochloa oryzicola Vasing); assay: Test Example 1: herbicidal effect by soil application to paddy field; settings: for herbicidal effect, Echinochloa oryzicola Vasing: paddy field soil application, active ingredient 1,000 g per 1 hectare, wettable powder added dropwise to water surface the day after sowing, examined on the 21st day after application
Procedure, shortened: (§1)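 Plants were sown in flooded (3 cm) paddy soil and evaluated for herbicidal effect 21 days after soil application in a greenhouse.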

[2] = tested on: Japanese bulrush (Scirpus juncoides Roxb.); assay: as above; settings: for herbicidal effect, Scirpus juncoides Roxb.: paddy field soil application, active ingredient 1,000 g per 1 hectare, wettable powder added dropwise to water surface the day after sowing, examined on the 21st day after application
Procedure, shortened: as §1

[3] = tested on: heartshape false pickerelweed (Monochoria vaginalis (Burm.f.) C.Presl); assay: as above; settings: for herbicidal effect, Monochoria vaginalis (Burm. f.) C. Presl: paddy field soil application, active ingredient 1,000 g per 1 hectare, wettable powder added dropwise to water surface the day after sowing, examined on the 21st day after application
Procedure, shortened: as §1

[4] = tested on: green foxtail (Setaria viridis (L.) P. Beauv.); assay: Test Example 2: herbicidal effect by soil application to upland field; settings: soil surface spray, upland field soil, 1,000 g active ingredient per hectare, 21st day after application
Procedure, shortened: (§2)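 Dose was 1,000 g active ingredient per hectare, applied as a wettable powder diluted in water and sprayed evenly over the soil of sown, covered pots at a 1,000 L/ha equivalent. Effect was judged by a standard scale 21 d later under greenhouse conditions.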

[5] = tested on: slender amaranth (Amaranthus viridis L.); assay: as above; settings: soil surface spray, upland field soil, 1,000 g active ingredient per hectare, 21st day after application
Procedure, shortened: as §2

[6] = tested on: velvetleaf (Abutilon theophrasti medicus); assay: as above; settings: soil surface spray, upland field soil, 1,000 g active ingredient per hectare, 21st day after application
Procedure, shortened: as §2

[7] = tested on: barnyardgrass (Echinochloa crus-galli (L.) P. Beauv. var. crus-galli); assay: as above; settings: soil surface spray, upland field soil, 1,000 g active ingredient per hectare, 21st day after application
Procedure, shortened: as §2

[8] = tested on: green foxtail (Setaria viridis (L.) P. Beauv.); assay: Test Example 3: herbicidal effect by application to upland field (foliage treatment); settings: 14th day after application; for herbicidal effect (index), Green Foxtail: foliage treatment, plants grown two weeks, 1,000 g active ingredient per hectare; for herbicidal effect, Green Foxtail: foliage treatment, 1,000 g active ingredient per 1 hectare, greenhouse
Procedure, shortened: (§3)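 Field-soil pots sown with the four weed species and grown two weeks in a greenhouse, then sprayed over the whole plant with wettable powder in water at 1,000 g active ingredient/ha in 1,000 L/ha. Herbicidal effect scored against a rating standard 14 days after treatment.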

[9] = tested on: slender amaranth (Amaranthus viridis L.); assay: as above; settings: 14th day after application; for herbicidal effect (index), Slender Amaranth: foliage treatment, plants grown two weeks, 1,000 g active ingredient per hectare; for herbicidal effect, Slender Amaranth: foliage treatment, 1,000 g active ingredient per 1 hectare, greenhouse
Procedure, shortened: as §3

[10] = tested on: velvetleaf (Abutilon theophrasti medicus); assay: as above; settings: 14th day after application; for herbicidal effect (index), Velvetleaf: foliage treatment, plants grown two weeks, 1,000 g active ingredient per hectare; for herbicidal effect, Velvetleaf: foliage treatment, 1,000 g active ingredient per 1 hectare, greenhouse
Procedure, shortened: as §3

[11] = tested on: barnyardgrass (Echinochloa crus-galli (L.) P. Beauv. var. crus-galli); assay: as above; settings: 14th day after application; for herbicidal effect (index), Barnyardgrass: foliage treatment, plants grown two weeks, 1,000 g active ingredient per hectare; for herbicidal effect, Barnyardgrass: foliage treatment, 1,000 g active ingredient per 1 hectare, greenhouse
Procedure, shortened: as §3

[12] = soil application to paddy field, rated by standard of Table 34

COc1cc(-n2c(C(F)(F)F)ccc(C(=O)C3=C(O)CCCC3=O)c2=O)ccc1Cl [I-108]
herbicidal effect, Echinochloa oryzicola Vasing [1]: 5 (90% or more of herbicidal effect and crop phytotoxicity) | herbicidal effect, Scirpus juncoides Roxb. [2]: 5 (90% or more of herbicidal effect and crop phytotoxicity) | herbicidal effect, Monochoria vaginalis (Burm. f.) C. Presl [3]: 5 (90% or more of herbicidal effect and crop phytotoxicity) | herbicidal effect (index), Green Foxtail [4]: 4 (70 to less than 90% of herbicidal effect and crop phytotoxicity) | herbicidal effect (index), Slender Amaranth [5]: 5 (90% or more of herbicidal effect and crop phytotoxicity) | herbicidal effect (index), Velvetleaf [6]: 5 (90% or more of herbicidal effect and crop phytotoxicity) | herbicidal effect (index), Barnyardgrass [7]: 5 (90% or more of herbicidal effect and crop phytotoxicity) | herbicidal effect (index), Green Foxtail [8]: 5 (90% or more of herbicidal effect and crop phytotoxicity) | herbicidal effect (index), Slender Amaranth [9]: 5 (90% or more of herbicidal effect and crop phytotoxicity) | herbicidal effect (index), Velvetleaf [10]: 5 (90% or more of herbicidal effect and crop phytotoxicity) | herbicidal effect (index), Barnyardgrass [11]: 5 (90% or more of herbicidal effect and crop phytotoxicity)

COc1ccc(-n2c(C(F)(F)F)ccc(C(=O)C3=C(O)CCCC3=O)c2=O)cc1OC [I-100]
herbicidal effect, Echinochloa oryzicola Vasing [1]: 5 (90% or more of herbicidal effect and crop phytotoxicity) | herbicidal effect, Scirpus juncoides Roxb. [2]: 5 (90% or more of herbicidal effect and crop phytotoxicity) | herbicidal effect, Monochoria vaginalis (Burm. f.) C. Presl [3]: 5 (90% or more of herbicidal effect and crop phytotoxicity) | herbicidal effect (index), Green Foxtail [4]: 4 (70 to less than 90% of herbicidal effect and crop phytotoxicity) | herbicidal effect (index), Slender Amaranth [5]: 5 (90% or more of herbicidal effect and crop phytotoxicity) | herbicidal effect (index), Velvetleaf [6]: 5 (90% or more of herbicidal effect and crop phytotoxicity) | herbicidal effect (index), Barnyardgrass [7]: 5 (90% or more of herbicidal effect and crop phytotoxicity) | herbicidal effect (index), Green Foxtail [8]: 4 (70 to less than 90% of herbicidal effect and crop phytotoxicity) | herbicidal effect (index), Slender Amaranth [9]: 5 (90% or more of herbicidal effect and crop phytotoxicity) | herbicidal effect (index), Velvetleaf [10]: 5 (90% or more of herbicidal effect and crop phytotoxicity) | herbicidal effect (index), Barnyardgrass [11]: 5 (90% or more of herbicidal effect and crop phytotoxicity)

CSc1cccc(-n2c(C(F)(F)F)ccc(C(=O)C3=C(O)CCCC3=O)c2=O)c1 [I-80]
herbicidal effect, Echinochloa oryzicola Vasing [1]: 5 (90% or more of herbicidal effect and crop phytotoxicity) | herbicidal effect, Scirpus juncoides Roxb. [2]: 5 (90% or more of herbicidal effect and crop phytotoxicity) | herbicidal effect, Monochoria vaginalis (Burm. f.) C. Presl [3]: 5 (90% or more of herbicidal effect and crop phytotoxicity) | herbicidal effect (index), Green Foxtail [4]: 5 (90% or more of herbicidal effect and crop phytotoxicity) | herbicidal effect (index), Slender Amaranth [5]: 5 (90% or more of herbicidal effect and crop phytotoxicity) | herbicidal effect (index), Velvetleaf [6]: 5 (90% or more of herbicidal effect and crop phytotoxicity) | herbicidal effect (index), Barnyardgrass [7]: 5 (90% or more of herbicidal effect and crop phytotoxicity) | herbicidal effect (index), Green Foxtail [8]: 5 (90% or more of herbicidal effect and crop phytotoxicity) | herbicidal effect (index), Slender Amaranth [9]: 5 (90% or more of herbicidal effect and crop phytotoxicity) | herbicidal effect (index), Velvetleaf [10]: 5 (90% or more of herbicidal effect and crop phytotoxicity) | herbicidal effect (index), Barnyardgrass [11]: 5 (90% or more of herbicidal effect and crop phytotoxicity)

CCCS(=O)(=O)Cn1c(C(F)(F)F)ccc(C(=O)C2=C(O)CCCC2=O)c1=O [I-51]
herbicidal effect, Echinochloa oryzicola Vasing [1]: 5 (90% or more of herbicidal effect and crop phytotoxicity) | herbicidal effect, Scirpus juncoides Roxb. [2]: 5 (90% or more of herbicidal effect and crop phytotoxicity) | herbicidal effect, Monochoria vaginalis (Burm. f.) C. Presl [3]: 5 (90% or more of herbicidal effect and crop phytotoxicity) | herbicidal effect (index), Green Foxtail [4]: 5 (90% or more of herbicidal effect and crop phytotoxicity) | herbicidal effect (index), Slender Amaranth [5]: 5 (90% or more of herbicidal effect and crop phytotoxicity) | herbicidal effect (index), Velvetleaf [6]: 5 (90% or more of herbicidal effect and crop phytotoxicity) | herbicidal effect (index), Barnyardgrass [7]: 5 (90% or more of herbicidal effect and crop phytotoxicity) | herbicidal effect (index), Green Foxtail [8]: 5 (90% or more of herbicidal effect and crop phytotoxicity) | herbicidal effect (index), Slender Amaranth [9]: 5 (90% or more of herbicidal effect and crop phytotoxicity) | herbicidal effect (index), Velvetleaf [10]: 5 (90% or more of herbicidal effect and crop phytotoxicity) | herbicidal effect (index), Barnyardgrass [11]: 5 (90% or more of herbicidal effect and crop phytotoxicity)

CCCS(=O)(=O)Oc1c(C(=O)c2ccc(C(F)(F)F)n(C)c2=O)cnn1C [IV-196]
herbicidal effect, Echinochloa oryzicola Vasing [1]: 5 (90% or more of herbicidal effect and crop phytotoxicity) | herbicidal effect, Scirpus juncoides Roxb. [2]: 5 (90% or more of herbicidal effect and crop phytotoxicity) | herbicidal effect, Monochoria vaginalis (Burm. f.) C. Presl [3]: 5 (90% or more of herbicidal effect and crop phytotoxicity) | herbicidal effect (index), Green Foxtail [4]: 4 (70 to less than 90% of herbicidal effect and crop phytotoxicity) | herbicidal effect (index), Slender Amaranth [5]: 5 (90% or more of herbicidal effect and crop phytotoxicity) | herbicidal effect (index), Velvetleaf [6]: 5 (90% or more of herbicidal effect and crop phytotoxicity) | herbicidal effect (index), Barnyardgrass [7]: 5 (90% or more of herbicidal effect and crop phytotoxicity) | herbicidal effect, Green Foxtail [8]: 3 (50 to less than 70% of herbicidal effect and crop phytotoxicity) | herbicidal effect, Slender Amaranth [9]: 5 (90% or more of herbicidal effect and crop phytotoxicity) | herbicidal effect, Velvetleaf [10]: 5 (90% or more of herbicidal effect and crop phytotoxicity) | herbicidal effect, Barnyardgrass [11]: 4 (70 to less than 90% of herbicidal effect and crop phytotoxicity)

O=C1CCCC(O)=C1C(=O)c1cnccn1 [Comparative Compound 1, reference compound]
herbicidal effect (index), Echinochloa oryzicola Vasing [1, 12]: 1 (10 to less than 30% of herbicidal effect and crop phytotoxicity) | herbicidal effect (index), Scirpus juncoides Roxb. [2, 12]: 0 (0 to less than 10% of herbicidal effect and crop phytotoxicity) | herbicidal effect (index), Monochoria vaginalis (Burm.f.) C.Presl [3, 12]: 0 (0 to less than 10% of herbicidal effect and crop phytotoxicity) | herbicidal effect (index), Green Foxtail [4]: 1 (10 to less than 30% of herbicidal effect and crop phytotoxicity) | herbicidal effect (index), Slender Amaranth [5]: 0 (0 to less than 10% of herbicidal effect and crop phytotoxicity) | herbicidal effect (index), Velvetleaf [6]: 1 (10 to less than 30% of herbicidal effect and crop phytotoxicity) | herbicidal effect (index), Barnyardgrass [7]: 1 (10 to less than 30% of herbicidal effect and crop phytotoxicity) | herbicidal effect, Green Foxtail [8]: 0 (0 to less than 10% of herbicidal effect and crop phytotoxicity) | herbicidal effect, Slender Amaranth [9]: 1 (10 to less than 30% of herbicidal effect and crop phytotoxicity) | herbicidal effect, Velvetleaf [10]: 2 (30 to less than 50% of herbicidal effect and crop phytotoxicity) | herbicidal effect, Barnyardgrass [11]: 0 (0 to less than 10% of herbicidal effect and crop phytotoxicity)

COc1ccc(-n2c(C(F)(F)F)ccc(C(=O)C3=C(O)CCCC3=O)c2=O)c(OC)c1 [I-99]
herbicidal effect, Echinochloa oryzicola Vasing [1]: 5 (90% or more of herbicidal effect and crop phytotoxicity) | herbicidal effect, Scirpus juncoides Roxb. [2]: 5 (90% or more of herbicidal effect and crop phytotoxicity) | herbicidal effect, Monochoria vaginalis (Burm. f.) C. Presl [3]: 5 (90% or more of herbicidal effect and crop phytotoxicity) | herbicidal effect (index), Green Foxtail [4]: 4 (70 to less than 90% of herbicidal effect and crop phytotoxicity) | herbicidal effect (index), Slender Amaranth [5]: 5 (90% or more of herbicidal effect and crop phytotoxicity) | herbicidal effect (index), Velvetleaf [6]: 5 (90% or more of herbicidal effect and crop phytotoxicity) | herbicidal effect (index), Barnyardgrass [7]: 5 (90% or more of herbicidal effect and crop phytotoxicity) | herbicidal effect (index), Green Foxtail [8]: 4 (70 to less than 90% of herbicidal effect and crop phytotoxicity) | herbicidal effect (index), Slender Amaranth [9]: 5 (90% or more of herbicidal effect and crop phytotoxicity) | herbicidal effect (index), Velvetleaf [10]: 5 (90% or more of herbicidal effect and crop phytotoxicity) | herbicidal effect (index), Barnyardgrass [11]: 5 (90% or more of herbicidal effect and crop phytotoxicity)

Cn1ncc(C(=O)c2ccc(C(F)(F)F)n(C)c2=O)c1OC(=O)c1ccc(C(C)(C)C)cc1 [IV-198]
herbicidal effect, Echinochloa oryzicola Vasing [1]: 5 (90% or more of herbicidal effect and crop phytotoxicity) | herbicidal effect, Scirpus juncoides Roxb. [2]: 5 (90% or more of herbicidal effect and crop phytotoxicity) | herbicidal effect, Monochoria vaginalis (Burm. f.) C. Presl [3]: 5 (90% or more of herbicidal effect and crop phytotoxicity) | herbicidal effect (index), Green Foxtail [4]: 3 (50 to less than 70% of herbicidal effect and crop phytotoxicity) | herbicidal effect (index), Slender Amaranth [5]: 5 (90% or more of herbicidal effect and crop phytotoxicity) | herbicidal effect (index), Velvetleaf [6]: 4 (70 to less than 90% of herbicidal effect and crop phytotoxicity) | herbicidal effect (index), Barnyardgrass [7]: 3 (50 to less than 70% of herbicidal effect and crop phytotoxicity) | herbicidal effect, Green Foxtail [8]: 3 (50 to less than 70% of herbicidal effect and crop phytotoxicity) | herbicidal effect, Slender Amaranth [9]: 5 (90% or more of herbicidal effect and crop phytotoxicity) | herbicidal effect, Velvetleaf [10]: 5 (90% or more of herbicidal effect and crop phytotoxicity) | herbicidal effect, Barnyardgrass [11]: 4 (70 to less than 90% of herbicidal effect and crop phytotoxicity)
